Earlier results, collected in PubChem BioAssay AID1259409 (Chemical Carcinogenesis Research Information System (CCRIS), 2018).

Test system: rodent chemically induced tumor inhibition, incidence and multiplicity
Test: CCRIS tumor inhibitor studies
Details: Species: RAT; for tumour outcome (control, treated, inhibition, significance): Carcinogen: DIETHYLNITROSAMINE, 55-18-5, N-METHYL-N-NITROSOUREA, 684-93-5, N-BUTYL-N-(4-HYDROXYBUTYL)NITROSAMINE, 3817-11-6, DIMETHY, Dose [Inhibitor]: 0, Route [Inhibitor]: ORAL, Strain/Sex: F344/MALE, Dose [Carcinogen]: 100 MG/KG BW DEN ONCE FOLLOWED BY 20 MG/KG BW MNU 4 TIMES AND 0.05% BBN IN DRINKING WATER DURING FIRST 2 WK THEN 40 MG/K, Promoter: NONE USED

## CCCCCCOc1cc(C)c(O)c(C)c1C
1% IN THE DIET FOR 24 WK BEGINNING 1 DAY POST CARCINOGEN TREATMENT (STUDY DURATION: 28 WK), Target Tissue: Type of Lesion: SMALL INTESTINE: ADENOMA
  tumour outcome (control, treated, inhibition, significance): 33%, 0%, 100%, p<0.05
1% IN THE DIET FOR 24 WK BEGINNING 1 DAY POST CARCINOGEN TREATMENT (STUDY DURATION: 28 WK), Target Tissue: Type of Lesion: THYROID: CARCINOMA
  tumour outcome (control, treated, inhibition, significance): 7%, 8%, -14%, not significant
1% IN THE DIET FOR 24 WK BEGINNING 1 DAY POST CARCINOGEN TREATMENT (STUDY DURATION: 28 WK), Target Tissue: Type of Lesion: URINARY BLADDER: CARCINOMA
  tumour outcome (control, treated, inhibition, significance): 7%, 0%, 100%, not significant
1% IN THE DIET FOR 24 WK BEGINNING 1 DAY POST CARCINOGEN TREATMENT(STUDY DURATION: 28 WK), Target Tissue: Type of Lesion: SMALL INTESTINE: CARCINOMA
  tumour outcome (control, treated, inhibition, significance): 7%, 0%, 100%, not significant
1% IN THE DIET FOR 30 D BEGINNING 1 D PRIOR TO CARCINOGEN TREATMENT (STUDY DURATION: 28 WK), Target Tissue: Type of Lesion: URINARY BLADDER: PAPILLOMA
  tumour outcome (control, treated, inhibition, significance): 7%, 21%, -200%, not significant
1% IN THE DIET FOR 30 D BEGINNING 1 DAY PRIOR TO CARCINOGEN TREATMENT (STUDY DURATION: 28 WK), Target Tissue: Type of Lesion: LARGE INTESTINE: CARCINOMA
  tumour outcome (control, treated, inhibition, significance): 7%, 0%, 100%, not significant
1% IN THE DIET FOR 30 D BEGINNING 1 DAY PRIOR TO CARCINOGEN TREATMENT (STUDY DURATION: 28 WK), Target Tissue: Type of Lesion: SMALL INTESTINE: ADENOMA
  tumour outcome (control, treated, inhibition, significance): 33%, 14%, 58%, not significant
1% IN THE DIET FOR 30 D BEGINNING 1 DAY PRIOR TO CARCINOGEN TREATMENT (STUDY DURATION: 28 WK), Target Tissue: Type of Lesion: THYROID: CARCINOMA
  tumour outcome (control, treated, inhibition, significance): 7%, 0%, 100%, not significant
1% IN THE DIET FOR 30 D BEGINNING 1 DAY PRIOR TO CARCINOGEN TREATMENT (STUDY DURATION: 28 WK), Target Tissue: Type of Lesion: URINARY BLADDER: CARCINOMA
  tumour outcome (control, treated, inhibition, significance): 7%, 14%, -100%, not significant
Carcinogen: SUBCUTANEOUS, Dose [Inhibitor]: 1,2-DIMETHYLHYDRAZINE [540-73-8], Route [Inhibitor]: 0.125% IN DIET FOR 32 WK BEGINNING 1 WK POST LAST CARCINOGEN DOSE (STUDY DURATION: 36 WK), Strain/Sex: ORAL, Target Tissue: Type of Lesion: 20/21 (95%), 21/21 (100%), -5%, NOT SIGNIFICANT, Dose [Carcinogen]: 2-AMINO-1-METHYL-6-PHENYLIMIDAZO[4,5-B]PYRIDINE [105650-23-5], Promoter: ORAL
  outcome: 9.1, 6.2, 32%, not significant
